The text below walks through data of patent publication US20240254089A1, “MODULATORS OF MAS-RELATED G-PROTEIN RECEPTOR X4 AND RELATED PRODUCTS AND METHODS” (ESCIENT PHARMACEUTICALS, INC., priority 2020, published 2024).

Molecules are shown by their SMILES. Where two headings read alike, the source gives them in different places. A value given as a limit tells only on which side of the number the result lay.

For this assay, the target named is T1, human MRGPR X4 (Homo sapiens, UniProt Q96LA9).
T1 construct: expressed in transfected cells
T1 sequence (Q96LA9 whole entry): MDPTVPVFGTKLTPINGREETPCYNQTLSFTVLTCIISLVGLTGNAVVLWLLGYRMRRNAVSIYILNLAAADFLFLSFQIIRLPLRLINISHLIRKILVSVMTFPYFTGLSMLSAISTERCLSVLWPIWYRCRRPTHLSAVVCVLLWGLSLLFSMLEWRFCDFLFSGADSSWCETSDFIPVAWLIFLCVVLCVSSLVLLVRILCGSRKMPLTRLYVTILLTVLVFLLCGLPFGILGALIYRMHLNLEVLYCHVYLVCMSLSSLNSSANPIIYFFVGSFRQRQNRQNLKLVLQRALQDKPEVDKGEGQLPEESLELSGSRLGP
The assay is described as follows: MRGPR X4 antagonist activity, IP-One Gq HTRF assay in stably transfected HEK cells. Format: cell-based. An outline of the steps: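 Human MRGPR X4-expressing HEK cells, 20,000/well, were incubated with compound (10-point curve, 10 uM top, 1:3 dilutions) plus agonist (10 μM bilirubin, 20 μM deoxycholic acid or 100 μM conjugated bilirubin) in Tris/NaCl/LiCl buffer, pH 8, for 1 h at 37 °C, then 30 min at room temperature. IP-1 was read by HTRF, and IC50 was taken from the HTRF ratio.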

[1] abbreviates: versus 20 μM deoxycholic acid agonist, HEK cells expressing human MRGPR X4, read-out: MRGPRX4 Antagonist Activity.

In the case of `Cc1cccc(S(=O)(=O)NC(=O)c2nn(Cc3ccc(C#N)cc3)c3ccccc23)c1` [Compound 273], under setting [1], the IC50 was 1000 to 2500 nM.
For the molecule `O=C(NCCc1ccncc1)c1cn(Cc2cccc(F)c2)c2ccccc12` [Compound 219], the IC50 lay in the range of 1000 to 2500 nM.
Consider `O=C(Nc1cccnc1)c1nn(Cc2ccc(Cl)cc2)c2ccccc12` [Compound 130], for which the IC50 is more than 2500 nM.
As for `CC(C)c1ccc(Cn2nc(C(=O)NCCc3ccccn3)c3ccccc32)cc1` [Compound 91], the IC50 fell in the range of 501 to 1000 nM.
On the same count and under the same terms, in the case of `O=C(NCCc1nnc2ccccn12)c1nn(Cc2cccc3ccccc23)c2ccccc12` [Compound 474] it was 100 to 500 nM.
`CCc1nc(CCNC(=O)c2nn(Cc3ccc(Cl)cc3)c3ccccc23)sc1C` [Compound 79] displayed an IC50 of 501 to 1000 nM.
On to `Cc1cc(Cl)ccc1Cn1nc(C(=O)NCCc2cccnc2)c2ccccc21` [Compound 37], for which the IC50 lay within 100 to 500 nM.
Still for that read-out and setting: in the case of `Cc1ccc(Cn2cc(C(=O)NCCc3cccnc3)c3ccccc32)cc1` [Compound 160] it was 100 to 500 nM; in that of `COc1ccc(-c2nc(Cn3nc(C(=O)NCCc4nnc5ccccn45)c4ccccc43)cs2)cc1` [Compound 499], 501 to 1000 nM; in that of `O=C(NCCc1nnc2n1CCCCC2)c1nn(Cc2ccc(OC(F)F)cc2)c2ccccc12` [Compound 24], less than 100 nM.
In turn, `Cc1cccc2c1c(C(=O)NCCc1nnc3ccccn13)nn2Cc1ccc(Cl)cc1` [Compound 565] registered an IC50 of less than 100 nM.
Still for that read-out and setting: in the case of `O=C(NCCc1nnc2ccccn12)c1nn(Cc2ccc(Cl)cc2)c2ccc(I)cc12` [Compound 552] it was less than 100 nM.
Still for that read-out and setting: the result for `O=C(CNC(=O)c1nn(Cc2ccc(Cl)cc2)c2ccccc12)c1ccc(O)cc1` [Compound 382] reads 501 to 1000 nM; that for `COc1ccc(Cn2nc(C(=O)NCCc3nnc4ccccn34)c3ccccc32)c2ccccc12` [Compound 473], 100 to 500 nM; that for `O=C(NCCc1nnc2ccccn12)c1nn(Cc2cn3cc(Br)ccc3n2)c2ccccc12` [Compound 502], more than 2500 nM.
Still for that read-out and setting: the result for `O=C(NCCc1nnc2ccccn12)c1nn(CCCC2CCCC2)c2ccccc12` [Compound 487] reads 100 to 500 nM; that for `COc1ccc2c(C(=O)NCCc3nnc4ccccn34)nn(Cc3ccc(Cl)cc3)c2c1` [Compound 563], less than 100 nM.
For `N#Cc1ccc(S(=O)(=O)NC(=O)c2nn(Cc3ccc(OC(F)F)cc3)c3ccccc23)cc1` [Compound 280], the IC50 under setting [1] is 1000 to 2500 nM.
`Cn1nc(CNC(=O)c2nn(Cc3ccc(Cl)cc3)c3ccccc23)c2cccnc21` [Compound 389] returned an IC50 of more than 2500 nM.
Regarding `O=C(NCCc1cccc(F)c1)c1cn(Cc2ccc(Cl)cc2)c2ccccc12` [Compound 162], the IC50 fell in the range of 100 to 500 nM.
On the same count and under the same terms, in the case of `O=C(NCCc1cccnc1)c1nn(Cc2ccc(OC(F)F)cc2)c2ccccc12` [Compound 42] it was 100 to 500 nM.
`O=C(NCCn1nnc2ccccc21)c1nn(Cc2ccc(Cl)cc2)c2ccccc12` [Compound 361]: the IC50 was less than 100 nM.
Molecule `O=C(NCCc1cccc(OC(F)(F)F)c1)c1cn(Cc2ccc(Cl)cc2)c2ccccc12` [Compound 200] gave an IC50 of 1000 to 2500 nM.
Same read-out and setting: the result for `O=C(NCc1nc2ccccc2[nH]1)c1nn(Cc2ccc(Cl)cc2)c2ccccc12` [Compound 352] reads 100 to 500 nM; that for `O=C(NCCn1cccc1)c1nn(Cc2ccc(Cl)cc2)c2ccccc12` [Compound 349], 501 to 1000 nM.
On the same count and under the same terms, in the case of `Cc1ccccc1S(=O)(=O)NC(=O)c1nn(Cc2ccc(Cl)cc2)c2ccccc12` [Compound 287] it was 1000 to 2500 nM; in that of `Cc1ccc(Cn2nc(C(=O)NCCc3ccncc3)c3ccccc32)cc1` [Compound 78], 501 to 1000 nM.
Still for that read-out and setting: the result for `O=C(NCCc1nnc2ccccn12)c1nn(Cc2ccc(Cl)cc2)c2c(F)cccc12` [Compound 540] reads less than 100 nM.
`O=C(NCCc1nnc2ccccn12)c1nn(CCc2ccc(C(F)(F)F)cc2)c2ccccc12` [Compound 441] showed an IC50 of 1000 to 2500 nM.
Still for that read-out and setting: in the case of `Cc1ccccc1CCNC(=O)c1nn(Cc2ccc(Cl)cc2)c2ccccc12` [Compound 363] it was more than 2500 nM.
